Reference: US10208351B2, “RNY-derived small RNAs as biomarkers for atherosclerosis-related disorders” (INSTITUT NATIONAL DE LA SANTE ET DE LA RECHERCHE MEDICALE …, priority 2013, dated 2019)

Tests used:
[1] = test system: potential s-RNYs-target mRNAs; test: Quantitative RT-PCR of potential s-RNYs-target mRNAs in PA-treated BMDMs; assay type: cell-based, mouse; conditions: of 32 mRNAs (about 62%), FIG. 11
Description: FIG. 11: Quantitative RT-PCR analysis of the potential s-RNYs-target mRNAs in BMDMs transfected with siAgo2, 2′-OMe-RNA antisense oligonucleotides (AS) to s-RNYs, or control. BMDMs were left unstimulated (black column) or stimulated with 0.25 mM of PA for 18 hr, and total RNA was isolated and analyzed. Data were normalized by U2 snRNA and are presented as mean and s.d. (n=6).
BMDMs and NIH-3T3 cells (ATCC) were transiently transfected for 48 hr with Lipofectamine 2000 (Invitrogen) according to the manufacturer's instructions. siRNAs were transfected at the final concentration of 24 nM, while 2′-OMe-RNA antisense oligonucleotides to s-RNYs (Eurogentec) were transfected at the final concentration of 100 nM. […]
RNA expression by quantitative RT-PCR was carried out by using standard procedures. […] For s-RNYs detection by quantitative RT-PCR a stem-loop quantitative RT-PCR method was used according to Chen et al. (Chen, C., et al. (2005). Nucleic acids research 33, e179). […] This method allows the detection of the s-RNYs derived from only the 5′ end of the precursor by quantitative RT-PCR analysis, namely the s-RNY1-5p and s-RNY3-5p from mouse and s-RNY1-5p, s-RNY3-5p, and s-RNY4-5p from human. Quantitative RT-PCRs using Sybr Green and TaqMan (Invitrogen) for cel-miR-39 were performed on a StepONE system (Applied Biosystem). […]

[2] = test system: bone marrow-derived macrophages (BMDMs); test: s-RNY expression in stimulated BMDMs, stem-loop quantitative RT-PCR; assay type: cell-based, mouse; conditions: in combination with thapsigargin (ER stress)
Description: Bone marrow cells were collected from femurs and tibias of ten-week-old male C57BL/6J mice by flushing with sterile medium as previously described (T. Ruggiero, M. et al (2009) FASEB J 23:2898-2908). To differentiate into macrophages, bone marrow cells (10^6) were plated in 10-cm plates in 7 ml of BMDM medium (DMEM supplemented with 20% low-endotoxin fetal bovine serum, 30% L929-cell conditioned medium, 1% I-glutamine, 1% Pen/Strep, 0.5% Na pyruvate, and 0.1% β-mercaptoethanol), and fed with 2.5 ml of fresh medium every 2 days for 7 days. Human primary macrophages were prepared from peripheral blood monocytes obtained from healthy donors (Jacquel, A., et al. (2012). Blood 119, 4527-4531) in agreement with the French legislation on human biomedical research. All participants provided written informed consent attesting they had received all the information they needed about the study and they agreed in accordance with appropriate national regulations.
RNA expression by quantitative RT-PCR was carried out by using standard procedures. Briefly, for mRNA, total RNA was isolated from cells using Trizol and cDNA was synthesized with a random hexonucleotides using Superscript III (Invitrogen). For s-RNYs detection by quantitative RT-PCR a stem-loop quantitative RT-PCR method was used according to Chen et al. (Chen, C., et al. (2005). Nucleic acids research 33, e179). Briefly, total RNA was isolated from cells, tissue, or immunoprecipitation using Trizol (Invitrogen) according to the manufacturer's instructions. RNA extraction from extracellular medium, blood plasma, and serum was performed as previously described (Turchinovich, A., et al (2011). Nucleic acids research 39, 7223-7233). Briefly, 1.2 ml of Trizol LS were added to 0.4 ml of blood plasma, serum or media. Then (i) 5 pg of synthetic miRNA-39 from Caenorhabditis elegans (cel-miR-39) were added as a spike-in control for purification efficiency; (ii) 1.2 μl of glycogen (10 mg/ml) were added to enhance the efficiency of RNA column binding. Purification of extracted total RNA was performed with miRNeasy columns (Qiagen) according to the manufacturer's instructions. RNA was eluted in 30 μl of RNase-free water. cDNA was synthesized using a hairpin long oligonucleotide. This method allows the detection of the s-RNYs derived from only the 5′ end of the precursor by quantitative RT-PCR analysis, namely the s-RNY1-5p and s-RNY3-5p from mouse and s-RNY1-5p, s-RNY3-5p, and s-RNY4-5p from human. Quantitative RT-PCRs using Sybr Green and TaqMan (Invitrogen) for cel-miR-39 were performed on a StepONE system (Applied Biosystem). The primer sequences are detailed in Table 1. […]

[3] = test system: s-RNY1-3p binding sites (BS) from KFL2 mRNA sequence in NIH-3T3 cells; test: Luciferase reporter assay with s-RNY1-3p binding sites from KLF2 mRNA; assay type: cell-based; conditions: PA treatment, FIG. 12C
From the text: FIG. 12: (A) RNA duplex expected to result from base pairing of KFL2 mRNA with s-RNY1-3p. A-U and G-C base pairs are represented by solid lines; G-U wobble base pairs are represented by dotted lines, shown herein as SEQ ID NOS 58 and 59, respectively. (B) The sequence of the predicted target site of KFL2 mRNA from the indicated species, shown herein as SEQ ID NOS 60-63, respectively. The s-RNY1-3p seed complementary sequence is enclosed by a black box. Nucleotide conservation across the species is indicated by asterisks. (C) Relative luciferase activity of reporter constructs containing two either wt or mutant s-RNY1-3p binding sites (BS) from KFL2 mRNA sequence in NIH-3T3 cells transfected with either 2′-OMe-RNA antisense oligonucleotide to s-RNY1-3p or control. Cells were left unstimulated or stimulated with 0.25 mM of PA for 18 hr. The data were normalized using Renilla activity. Data are presented as mean and s.d. (n=4). Student's t-test: **P<0.01.
NIH-3T3 cells (80% confluence in 96-well plates) were transfected with Lipofectamine 2000® according to the manufacturer's instructions. Luciferase reporter assay was performed as previously described (Repetto, E., et al. (2012). PLoS genetics 8, e1002823).

[4] = test system: BMDMs; test: Apoptosis assay in BMDMs (annexin V / Dapi, flow cytometry); assay type: cell-based, mouse; conditions: FIGS. 13A and 13B
Description: FIG. 13: Apoptotic data by fluorocytometry for BMDMs overexpressing s-RNYs, transfected with either 2′-OMe-RNA antisense oligonucleotides to s-RNYs or control. BMDMs were stimulated with 0.25 mM of PA for 18 hr (A), 0.25 μM thapsigargin (Tg) in combination with […] of oxLDL for 28 hr (B), or left unstimulated (C). Percentage of apoptotic and necrotic cells was determined by staining with Dapi and annexin […]. Data are presented as mean and s.d. (n=3). Apoptosis was assayed in BMDMs by staining with Alexa 488-conjugated annexin V and Dapi as previously described (Jacquel, A., et al., 2012. Blood 119(19): 4527-4531). The number of annexin V- and Dapi-positive cells was counted and expressed as a percent of the total number of cells from duplicate wells.

[5] = test system: p38, NF-κB, JNK; test: p38, NF-κB and JNK signaling activation in BMDMs; assay type: cell-based, mouse; conditions: time course, data not shown
Description: BMDMs and NIH-3T3 cells (ATCC) were transiently transfected for 48 hr with Lipofectamine 2000 (Invitrogen) according to the manufacturer's instructions. siRNAs were transfected at the final concentration of 24 nM, while 2′-OMe-RNA antisense oligonucleotides to s-RNYs (Eurogentec) were transfected at the final concentration of 100 nM. When required, cell lysates were incubated at room temperature with RNase A (10 mg/ml, Ambion) for 30 min. Three-hundred micrograms of protein was immunoprecipitated with Protein A-Dynabeads (Invitrogen)-coupled antibodies for 16 hr at 4° C. with rotation. Immunoprecipitates were washed four times with lysis buffer and resuspended in SDS protein loading buffer. Proteins were subjected to SDS-PAGE, electroblotted onto PVDF membranes, and probed with different antibodies as indicated.
Recombinant Ago2 and hnRNP A1 were purchased from Sino Biological Inc. and CliniSciences, respectively, while recombinant KSRP was a gift from Dr. R. Gherzi. Mouse monoclonal anti-hnRNP A1 (4B10), mouse monoclonal anti-c-Myc (9E10), goat anti-actin (1-19), and IκBα (H-4) antibodies were purchased from SantaCruz. Rabbit anti-La/SSB and anti-Ro60 (TROVE2) antibodies were purchased from GmbH. Anti-Ago2 antibody was purchased from Wako Chemicals while rabbit anti-KLF2 and anti-NOS2A antibodies were from Millipore. Anti-KSRP antibody was a gift from Dr. R. Gherzi. […]

[6] = test system: BMDMs; test: Quantitative RT-PCR of s-RNYs from the medium of BMDMs; assay type: cell-based, mouse; conditions: 0.25 mM PA 18 hr, FIG. 14B
Description: FIG. 14: (A) Quantitative RT-PCR analysis of the indicated s-RNYs in BMDMs incubated with 0.25 mM of PA the indicated time. The data were normalized by U2 snRNA. (B) Quantitative RT-PCR analysis of the indicated s-RNYs from the medium of BMDMs. Cells were left unstimulated or incubated with 0.25 mM PA for 18 hr. Data were normalized by using the synthetic non-mammalian cel-miR-39, which was added to the samples before the RNA extraction. Data are presented as mean and s.d. (n=8).
RNA expression by quantitative RT-PCR was carried out by using standard procedures. Briefly, for mRNA, total RNA was isolated from cells using Trizol and cDNA was synthesized with a random hexonucleotides using Superscript III (Invitrogen). For s-RNYs detection by quantitative RT-PCR a stem-loop quantitative RT-PCR method was used according to Chen et al. (Chen, C., et al. (2005). Nucleic acids research 33, e179). Briefly, total RNA was isolated from cells, tissue, or immunoprecipitation using Trizol (Invitrogen) according to the manufacturer's instructions. […] This method allows the detection of the s-RNYs derived from only the 5′ end of the precursor by quantitative RT-PCR analysis, namely the s-RNY1-5p and s-RNY3-5p from mouse and s-RNY1-5p, s-RNY3-5p, and s-RNY4-5p from human. Quantitative RT-PCRs using Sybr Green and TaqMan (Invitrogen) for cel-miR-39 were performed on a StepONE system (Applied Biosystem). […]

[7] = test system: bone marrow-derived macrophages (BMDMs); test: s-RNY expression in stimulated BMDMs, stem-loop quantitative RT-PCR; assay type: cell-based, mouse; conditions: for s-RNY expression: stimulus given alone
[8] = test system: human primary macrophages; test: Northern blot of s-RNYs in human primary macrophages; assay type: cell-based; conditions: data not shown

| Compound | s-RNY expression [2] | s-RNY expression [7] | also measured |
| --- | --- | --- | --- |
| 5′-GUUGUAUUGUUUAGCGAUU-3′ (listed as RNA, chemistry not given here) [siAgo2] | – | – | potential target mRNAs whose expression was Ago2 and s-RNYs dependent [1]: at least 20/32 |
| CCCCCCCCCCCCCCCC(=O)O [PA, palmitic acid] | increased markedly | induced | luciferase activity of the mutant reporter construct [3]: not affected; luciferase activity of the reporter construct containing the wt sequence [3]: repressed; apoptosis in macrophages treated with pro-atherogenic stimuli [4]: apoptosis activation; NF-κB activation (IκBα degradation) ([5]; after 9 hr of treatment): enhanced; p38 activation (p38 phosphorylation) ([5]; starting by 9 hr): enhanced; enrichment of s-RNYs in extracellular environment compared to control [6]: ~100 fold; time by which s-RNY expression was induced ([7]; 0.25 mM PA, FIG. 14A): ≤ 9 h |
| CN[C@@H]1C[C@H]2O[C@@](C)([C@@H]1OC)n1c3ccccc3c3c4c(c5c6ccccc6n2c5c31)C(=O)NC4 [STS, staurosporine] | – | – | expression of s-RNYs (s-RNY1-5p, s-RNY1-3p, s-RNY3-5p and s-RNY4-5p) [8]: induced |
| CCCCC/C=C\C/C=C\CCCCCCCC(=O)O [linoleic acid] | did not induce | did not induce | – |
| CCCCCCCC/C=C\CCCCCCCC(=O)O [oleic acid] | did not induce | did not induce | – |
| CCCCCCCCCCCCCCCCCC(=O)O [stearic acid] | increased markedly | induced | – |
| C/C=C(/C)C(=O)O[C@H]1C(C)=C2[C@H]([C@@H]1OC(=O)CCCCCCC)[C@@](C)(OC(C)=O)C[C@H](OC(=O)CCC)[C@@]1(O)[C@H]2OC(=O)[C@@]1(C)O [thapsigargin] | – | no effect | – |
